The values that follow come from patent US20240270715A1, “INHIBITORS OF TRANSGLUTAMINASES” (ZEDIRA GMBH, priority 2021, published 2024).

Like-named read-outs stand apart in the source and are kept apart here. Where only a bound is given, the exact number is not on record here.

The subject of one data set is Caco-2 barrier. Briefly: Caco-2 permeability assay (CacoReady kit). It counts as in vitro ADME. In a few lines: (§1)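 Compounds are tested on pre-formed Caco-2 barriers supplied as a ready-to-use kit, following the kit protocol, and the Papp value is derived to estimate intestinal absorption.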
On the technique in general: Caco-2 cells form a polarised layer with tight junctions and transporters.

A short description of data set [1]: Log D by shake flask method (octanol / PBS pH 7.4, HPLC). The class given is physicochemical. The conditions noted are these: octanol / PBS pH 7.4, shake flask. In a few lines:
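Log D is derived by HPLC measurement of how the compound distributes between octanol and pH 7.4 phosphate-buffered saline in a shake flask.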

The nature of data set [2]: Caco-2 permeability assay (CacoReady kit). It counts as in vitro ADME. The conditions noted are these: human. In short, it runs like this: as §1
The target of data set [3] is T1, recombinant human transglutaminase 2 (Homo sapiens, UniProt P21980).
T1 sequence (P21980 1-687): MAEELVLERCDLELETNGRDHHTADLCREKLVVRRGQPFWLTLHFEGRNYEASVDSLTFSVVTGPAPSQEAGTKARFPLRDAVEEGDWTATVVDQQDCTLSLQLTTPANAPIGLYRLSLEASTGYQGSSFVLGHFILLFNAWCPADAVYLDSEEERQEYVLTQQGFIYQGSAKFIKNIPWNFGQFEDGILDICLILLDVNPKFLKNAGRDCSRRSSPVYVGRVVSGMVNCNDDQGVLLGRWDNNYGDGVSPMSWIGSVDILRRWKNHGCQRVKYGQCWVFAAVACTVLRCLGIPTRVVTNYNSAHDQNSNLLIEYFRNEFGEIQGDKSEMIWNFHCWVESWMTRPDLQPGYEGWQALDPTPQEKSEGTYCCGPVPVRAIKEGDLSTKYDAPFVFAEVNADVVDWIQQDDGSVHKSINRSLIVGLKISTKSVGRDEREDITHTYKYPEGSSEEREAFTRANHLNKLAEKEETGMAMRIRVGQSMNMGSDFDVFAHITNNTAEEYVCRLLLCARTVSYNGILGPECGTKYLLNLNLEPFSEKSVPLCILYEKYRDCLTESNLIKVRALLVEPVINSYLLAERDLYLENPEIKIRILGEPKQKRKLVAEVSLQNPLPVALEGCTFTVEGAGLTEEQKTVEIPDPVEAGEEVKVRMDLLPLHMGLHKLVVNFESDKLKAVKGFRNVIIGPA
Kind of data set: Transglutaminase assay: incorporation of dansylcadaverine into dimethylcasein (DCC-assay). It counts as biochemical. In short, it runs like this: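 Recombinant human TG2 (10 nM final) incorporates dansylcadaverine (16.7 μM) into N,N-dimethylcasein (4 μM) in Tris-HCl buffer, pH 8.0, with 10 mM CaCl2 and 10 mM glutathione. Fluorescence (λex 330, λem 500 nm) followed 30 min. The slope between 20–30 min gives activity versus DMSO control, and IC50 comes from the concentration–activity plot.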

Setting [4] is: DCC-assay, values in text, read-out: IC50.
Setting [5] is: recombinant human TG2 10 nM, dansylcadaverine/dimethylcasein, read-out: IC50 TG2.

Usually Papp stands for a coefficient for how fast a substance crosses the barrier. As usually defined, the logD is the decadic logarithm of the distribution of all forms, ionised or not, between an organic phase and buffer at a given pH. In the case of `CCNC(=O)C(=O)CC[C@H](NC(=O)c1ccn(C)n1)C(=O)Nc1cccn(CC(=O)N[C@]23C[C@H]4C5CC6CC4[C@H](C2)C(C6)[C@H]5C3)c1=O` (single isomer, unassigned) [Compound I-80], in the data set on Caco-2 barrier, the apparent permeability coefficient (Papp) result was “A (A: Papp < 1 × 10^−6 cm/s)”. For the same molecule, the logD entry in data set [1] was “B (B: 1 ≤ logD < 3)”.
For orientation: IC50 means the midpoint of a concentration-inhibition curve. `CCC(CC)CNC(=O)Cn1cccc(NC(=O)[C@H](CC/C=C/C(=O)OC)NC(=O)c2cncn2C)c1=O` [Ref. 2, reference compound]: the Papp in data set [2] was less than 1 ×10⁻⁶ cm/s. Further, in data set [1] (read-out: logD), the log distribution coefficient (logD) was 1 to 3. Also, in data set [3] (DCC-assay, ratio of IC50), the “fold more potent compared to Ref. 3” value stood at 80 fold. The IC50 in data set [3] (setting [4]) is 0.053 µM; in data set [3] (setting [5]), less than 0.15 µM.
In turn, `CCOC(=O)/C=C/CC[C@H](NC(=O)c1cccnc1)C(=O)Nc1ccc(C)n(CC(=O)NCCc2ccccc2)c1=O` [Ref. 3, reference compound] yielded a Papp in data set [2] of less than 1 ×10⁻⁶ cm/s. The logD in data set [1] (read-out: logD) was in the range of 1 to 3. Besides, the IC50 in data set [3] (setting [4]) was 4.27 µM; in data set [3] (setting [5]) it was 3.5 to 10 µM.
Take `CCNC(=O)C(=O)CC[C@H](NC(=O)c1cccnc1)C(=O)Nc1cccn(CC(=O)NCCc2ccccc2)c1=O` [Ref. 4, reference compound]: in data set [2], the Papp is less than 1 ×10⁻⁶ cm/s. The logD in data set [1] (read-out: logD) was less than 1. In addition, the IC50 in data set [3] (setting [5]) was in the range of 3.5 to 10 µM.
